In the test the target is T1, human RORgT (Homo sapiens, UniProt P51449).
T1 construct: expressed in transfected cells
T1 sequence (P51449 267-516): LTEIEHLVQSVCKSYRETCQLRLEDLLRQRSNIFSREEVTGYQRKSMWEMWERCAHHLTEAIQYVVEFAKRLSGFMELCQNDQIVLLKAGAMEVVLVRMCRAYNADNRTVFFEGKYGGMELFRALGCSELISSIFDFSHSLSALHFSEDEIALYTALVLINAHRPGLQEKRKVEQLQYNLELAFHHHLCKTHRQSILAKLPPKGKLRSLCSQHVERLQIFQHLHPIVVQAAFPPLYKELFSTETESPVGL
The test is described as follows: RORgT Gal4 Luciferase Reporter Gene Assay. Format: cell-based. Particulars: engineered Jurkat cells overexpressing RORgT (LBD or full length) fused with Gal4 Luc reporter; 18 hours at 37° C.; luminescence. The gist of the method:
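Jurkat cells expressing Gal4 Luc with either RORgT LBD (aa267-516) or full-length human RORgT, 10,000 cells/well, treated with compound (40 µM to 0.67 nM final, 3-fold dilutions) for 18 h at 37° C. Steady-Glo luminescence read; inhibition of constitutive activity as % signal-window reduction relative to a control compound.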
On the technique in general: In a reporter assay the amount or activity of a reporter protein is the signal.
Take `O=C(O)[C@H]1CC[C@H](C(=O)N2CC[C@@]3(S(=O)(=O)c4ccc(F)cc4)c4ccc(OCc5cc(Cl)ccc5Cl)cc4CC[C@@H]23)CC1` [Example 205, (1r,4r)-4-[(3aR,9bR)-7-[(2,5-dichlorophenyl)methoxy] -9b-(4-fluorobenzenesulfonyl)-1H,2H,3H,3aH,4H,5H,9bH-benzo[e]indole-3-carbonyl]cyclohexane-1-carboxylic acid]: a half-maximal effect (EC50) was put at 9.5 nM. In other words, the single-digit nanomolar range. In the case of `CN1CCC(C(=O)N2CC[C@@]3(S(=O)(=O)c4ccc(F)cc4)c4ccc(OCc5ccc(F)cc5Cl)cc4CC[C@@H]23)CC1` [Example 206, 4-[(3aR,9bR)-7-[(2-chloro-4-fluorophenyl)methoxy]-9b-(4-fluorobenzenesulfonyl)-1H,2H,3H,3aH,4H,5H,9bH-benzo[e]indole-3-carbonyl]-1-methylpiperidine], the EC50 (in general, the concentration giving half of the maximal effect) turned out to be 216 nM. The figure for `CC(=O)N1CCC(C(=O)N2CC[C@@]3(S(=O)(=O)c4ccc(F)cc4)c4ccc(OCc5ccc(F)cc5Cl)cc4CC[C@@H]23)CC1` [Example 207, 1-{4-[(3aR,9bR)-7-[(2-chloro-4-fluorophenyl)methoxy]-9b-(4-fluorobenzenesulfonyl)-1H,2H,3H,3aH,4H,5H,9bH-benzo[e]indole-3-carbonyl]piperidin-1-yl}ethan-1-one] is 28 nM; for `CS(=O)(=O)CC(=O)N1CC[C@@]2(S(=O)(=O)c3ccc(F)cc3)c3ccc(OCc4cc(Cl)ccc4Cl)cc3CC[C@@H]12` [Example 208, 1-[(3 aR,9bR)-7-[(2,5-dichlorophenyl)methoxy] -9b-(4-fluorobenzenesulfonyl)-1H,2H,3H,3aH,4H,5H,9bH-benzo[e]indol-3-yl]-2-methanesulfonylethan-1-one] it is 162 nM. `NS(=O)(=O)CC(=O)N1CC[C@@]2(S(=O)(=O)c3ccc(F)cc3)c3ccc(OCc4cc(Cl)ccc4Cl)cc3CC[C@@H]12` [Example 209, 2-[(3aR,9bR)-7-[(2,5-dichlorophenyl)methoxy]-9b-(4-fluorobenzenesulfonyl)-1H,2H,3H,3aH,4H,5H,9bH-benzo[e]indol-3-yl]-2-oxoethane-1-sulfonamide]: the half-maximal effective concentration (EC50) turned out to be 124 nM. For the compound `NC(=O)N1CCC(C(=O)N2CC[C@@]3(S(=O)(=O)c4ccc(F)cc4)c4ccc(OCc5cc(F)c(F)cc5Cl)cc4CC[C@@H]23)CC1` [Example 210, 4-[(3aR,9bR)-7-[(2-chloro-4,5-difluorophenyl)methoxy]-9b-(4-fluorobenzenesulfonyl)-1H,2H,3H,3aH,4H,5H,9bH-benzo[e]indole-3-carbonyl] piperidine-1-carboxamide], the EC50 stood at 9.9 nM. `NS(=O)(=O)CC(=O)N1CC[C@@]2(S(=O)(=O)c3ccc(F)cc3)c3ccc(OCc4cc(F)c(F)cc4Cl)cc3CC[C@@H]12` [Example 211, 2-[(3aR,9bR)-7-[(2-chloro-4,5-difluorophenyl)methoxy]-9b-(4-fluorobenzenesulfonyl)-1H,2H,3H,3aH,4H,5H,9bH-benzo[e]indol-3-yl]-2-oxoethane-1-sulfonamide] returned an EC50 of 110 nM. `CN1CCC(C(=O)N2CC[C@@]3(S(=O)(=O)c4ccc(F)cc4)c4ccc(OCc5cc(F)c(F)cc5Cl)cc4CC[C@@H]23)CC1` [Example 212, 4-[(3aR,9bR)-7-[(2-chloro-4,5-difluorophenyl)methoxy]-9b-(4-fluorobenzenesulfonyl)-1H,2H,3H,3aH,4H,5H,9bH-benzo[e]indole-3-carbonyl]-1-methylpiperidine] yielded an EC50 of 160 nM. This EC50 and that of the compound before are within 1.5-fold of each other. `O=C(C1CCS(=O)(=O)C1)N1CC[C@@]2(S(=O)(=O)c3ccc(F)cc3)c3ccc(OCc4cc(F)c(F)cc4Cl)cc3CC[C@@H]12` (stereo partly drawn) [Example 213, 3-[(3aR,9bR)-7-[(2-chloro-4,5-difluorophenyl)methoxy]-9b-(4-fluorobenzenesulfonyl)-1H,2H,3H,3aH,4H,5H,9bH-benzo[e]indole-3-carbonyl]-1λ^6-thiolane-1,1-dione] showed an EC50 of 4.9 nM.

`CC(=O)N1CCC(C(=O)N2CC[C@@]3(S(=O)(=O)c4ccc(F)cc4)c4ccc(OCc5c(F)cc(F)cc5Cl)cc4CC[C@@H]23)CC1` [Example 214, 1-{4-[(3aR,9bR)-7-[(2-chloro-4,6-difluorophenyl)methoxy]-9b-(4-fluorobenzenesulfonyl)-1H,2H,3H,3aH,4H,5H,9bH-benzo[e]indole-3-carbonyl]piperidin-1-yl}ethan-1-one] displayed an EC50 of 5.3 nM. The figure for `CN1CCC(C(=O)N2CC[C@@]3(S(=O)(=O)c4ccc(F)cc4)c4ccc(OCc5c(F)cc(F)cc5Cl)cc4CC[C@@H]23)CC1` [Example 215, 4-[(3aR,9bR)-7-[(2-chloro-4,6-difluorophenyl)methoxy]-9b-(4-fluorobenzenesulfonyl)-1H,2H,3H,3aH,4H,5H,9bH-benzo[e]indole-3-carbonyl]-1-methylpiperidine] is 157 nM; for `CS(=O)(=O)CC(=O)N1CC[C@@]2(S(=O)(=O)c3ccc(F)cc3)c3ccc(OCc4cc(F)c(F)cc4Cl)cc3CC[C@@H]12` [Example 216, 1-[(3aR,9bR)-7-[(2-chloro-4,5-difluorophenyl)methoxy]-9b-(4-fluorobenzenesulfonyl)-1H,2H,3H,3aH,4H,5H,9bH-benzo[e]indol-3-yl]-2-methanesulfonylethan-1-one] it is 266 nM. The compound `CS(=O)(=O)CC(=O)N1CC[C@@]2(S(=O)(=O)c3ccc(F)cc3)c3ccc(OCc4c(F)cc(F)cc4Cl)cc3CC[C@@H]12` [Example 217, 1-[(3aR,9bR)-7-[(2-chloro-4,6-difluorophenyl)methoxy]-9b-(4-fluorobenzenesulfonyl)-1H,2H,3H,3aH,4H,5H,9bH-benzo[e]indol-3-yl]-2-methanesulfonylethan-1-one] displayed an EC50 of 168 nM. Compound `O=C(C1CCS(=O)(=O)C1)N1CC[C@@]2(S(=O)(=O)c3ccc(F)cc3)c3ccc(OCc4c(F)cc(F)cc4Cl)cc3CC[C@@H]12` (stereo partly drawn) [Example 218, 3-[(3aR,9bR)-7-[(2-chloro-4,6-difluorophenyl)methoxy]-9b-(4-fluorobenzenesulfonyl)-1H,2H,3H,3aH,4H,5H,9bH-benzo[e]indole-3-carbonyl]-1λ^6-thiolane-1,1-dione] yielded an EC50 of 12 nM. For `CC(=O)N1CCC(C(=O)N2CC[C@@]3(S(=O)(=O)c4ccc(F)cc4)c4ccc(OCc5cc(F)c(F)cc5Cl)cc4CC[C@@H]23)CC1` [Example 219, 1-{4-[(3aR,9bR)-7-[(2-chloro-4,5-difluorophenyl)methoxy]-9b-(4-fluorobenzenesulfonyl)-1H,2H,3H,3aH,4H,5H,9bH-benzo[e]indole-3-carbonyl]piperidin-1-yl}ethan-1-one], it took 53 nM to reach a half-maximal effect (EC50). Compared with the last compound, the EC50 is about 4.4-fold higher.

`NC(=O)N1CCC(C(=O)N2CC[C@@]3(S(=O)(=O)c4ccc(F)cc4)c4ccc(OCc5c(F)cc(F)cc5Cl)cc4CC[C@@H]23)CC1` [Example 220, 4-[(3aR,9bR)-7-[(2-chloro-4,6-difluorophenyl)methoxy]-9b-(4-fluorobenzenesulfonyl)-1H,2H,3H,3aH,4H,5H,9bH-benzo[e]indole-3-carbonyl]piperidine-1-carboxamide] displayed an EC50 of 13 nM. In the case of `O=C(CN1CCS(=O)(=O)CC1)N1CC[C@@]2(S(=O)(=O)c3ccc(F)cc3)c3ccc(OCc4cc(F)c(F)cc4Cl)cc3CC[C@@H]12` [Example 221, 4-{2-[(3aR,9bR)-7-[(2-chloro-4,5-difluorophenyl)methoxy]-9b-(4-fluorobenzenesulfonyl)-1H,2H,3H,3aH,4H,5H,9bH-benzo[e]indol-3-yl]-2-oxoethyl}-1λ^6-thiomorpholine-1,1-dione], the EC50 amounted to 34 nM.

In the case of `[2H]C([2H])(Oc1ccc2c(c1)CC[C@H]1N(C(=O)[C@H]3CC[C@H](C(=O)O)CC3)CC[C@@]21S(=O)(=O)c1ccc(F)cc1)c1c(F)cccc1Cl` [Example 222], the EC50 worked out at 3.9 nM. The figure for “(1R,4r)-4-((3aR,9bR)-7-((2-chloro-6-fluorobenzyl)oxy)-9b-((4-fluorophenyl)sulfonyl)-2,3,3a,4,5,9b-hexahydro-1H-benzo[e]indole-3-carbonyl)-1-methylcyclohexanecarboxylic acid [Example 8]” is 12 nM.

The record behind these values is US20230295087A1, “AGONISTS OF ROR GAMMAt” (BRISTOL-MYERS SQUIBB COMPANY, priority 2019, published 2023).
